Assay results as given in US20230382925A1, “MODULATORS OF CYSTIC FIBROSIS TRANSMEMBRANE CONDUCTANCE REGULATOR” (VERTEX PHARMACEUTICALS INCORPORATED, priority 2020, published 2023).
Like-named read-outs stand apart in the source and are kept apart here.

Molecular target: CFTR (Homo sapiens, UniProt P13569)
Assay: Membrane Potential Dye, Enteroid Assay B
Type: cell-based
How it was run: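 Human intestinal enteroid cells exposed to compound 18-24 h at 37 °C, then loaded with methyl oxonol membrane-potential dye plus CaCC blockers. Chloride transport triggered in chloride-free buffer with 10 μM forskolin, 100 μM IBMX, 300 nM Compound III; fluorescence read 15 min, expressed as % of triple-corrector/potentiator combination control.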

[1] = Table 10, read-out: Ent. B EC50

CFTR, sequence (P13569 with tags, fused parts or gaps DEL508-508): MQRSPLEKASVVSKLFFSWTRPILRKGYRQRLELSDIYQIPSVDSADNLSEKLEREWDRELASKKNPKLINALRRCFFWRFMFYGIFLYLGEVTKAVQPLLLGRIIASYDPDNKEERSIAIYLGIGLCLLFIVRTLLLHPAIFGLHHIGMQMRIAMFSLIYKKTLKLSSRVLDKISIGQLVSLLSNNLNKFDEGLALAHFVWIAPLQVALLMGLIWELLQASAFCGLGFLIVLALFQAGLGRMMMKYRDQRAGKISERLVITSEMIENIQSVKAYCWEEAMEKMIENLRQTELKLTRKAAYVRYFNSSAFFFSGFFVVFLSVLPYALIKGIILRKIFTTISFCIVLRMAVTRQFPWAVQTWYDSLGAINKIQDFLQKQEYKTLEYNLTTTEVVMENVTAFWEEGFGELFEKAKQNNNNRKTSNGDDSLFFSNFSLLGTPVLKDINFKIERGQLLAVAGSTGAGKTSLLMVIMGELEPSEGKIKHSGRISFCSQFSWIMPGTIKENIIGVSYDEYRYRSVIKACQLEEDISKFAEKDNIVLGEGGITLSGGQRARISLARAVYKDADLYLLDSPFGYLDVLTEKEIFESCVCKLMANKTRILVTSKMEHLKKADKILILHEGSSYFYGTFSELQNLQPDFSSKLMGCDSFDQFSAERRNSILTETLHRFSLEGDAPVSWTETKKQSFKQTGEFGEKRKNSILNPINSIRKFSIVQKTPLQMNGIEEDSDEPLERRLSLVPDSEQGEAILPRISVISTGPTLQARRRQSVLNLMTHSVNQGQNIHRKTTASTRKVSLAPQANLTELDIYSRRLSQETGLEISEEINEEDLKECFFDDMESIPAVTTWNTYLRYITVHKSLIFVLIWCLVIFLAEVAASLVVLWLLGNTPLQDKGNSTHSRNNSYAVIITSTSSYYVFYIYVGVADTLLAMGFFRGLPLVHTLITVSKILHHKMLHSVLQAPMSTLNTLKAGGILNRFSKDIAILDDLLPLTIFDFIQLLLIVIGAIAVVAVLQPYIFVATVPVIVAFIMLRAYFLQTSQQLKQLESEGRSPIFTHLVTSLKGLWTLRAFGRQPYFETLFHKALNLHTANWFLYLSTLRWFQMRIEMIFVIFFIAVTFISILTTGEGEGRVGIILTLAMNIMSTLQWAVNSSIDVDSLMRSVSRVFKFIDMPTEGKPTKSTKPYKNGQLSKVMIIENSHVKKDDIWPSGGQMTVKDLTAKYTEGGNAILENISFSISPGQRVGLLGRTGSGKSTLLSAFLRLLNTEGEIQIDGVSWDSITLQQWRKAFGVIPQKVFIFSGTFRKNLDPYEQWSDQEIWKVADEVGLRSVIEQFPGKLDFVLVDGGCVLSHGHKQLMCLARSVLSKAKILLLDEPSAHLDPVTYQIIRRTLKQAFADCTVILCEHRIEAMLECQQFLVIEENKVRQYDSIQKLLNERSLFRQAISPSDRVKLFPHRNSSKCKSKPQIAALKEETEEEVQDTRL

With `COCCN(C)[C@H]1C[C@]2(C1)C[C@H](N1C(=O)c3cccc(c3)S(=O)(=O)Nc3nc(cc(-c4c(C)cccc4C)n3)OC[C@H]1CC1(C(F)(F)F)CC1)C2` (stereo partly drawn) [Compound 82, (R)-1^6-(2,6-Dimethylphenyl)-6-((2S,4s,6S)-6-((2-methoxyethyl)(methyl)amino)spiro[3.3]heptan-2-yl)-7-((1-(trifluoromethyl)cyclopropyl)methyl)-9-oxa-3-thia-2,6-diaza-1(2,4)-pyrimidina-4(1,3)-benzenacyclononaphan-5-one 3,3-dioxide] the “Ent. B Max Activity (%)” value (Table 9) was “+++ (+++ is >60%)” and the EC50 (Table 9, read-out: Ent. B EC50) was under 1000 nM.

For `[H][C@]1(N2C(=O)c3cccc(c3)S(=O)(=O)Nc3nc(cc(-c4c(C)cccc4C)n3)OC[C@H]2CC(C)(C)C)C[C@@]2(C[C@H](NC(=O)OC3CC3)C2)C1` (stereo in doubt) [Compound 356], the “Ent. B Max Activity (%)” value (Table 10) was “+++ (+++ is >60%)” and the EC50 [1] was under 1000 nM.

In the case of `Cc1cccc(C)c1-c1cc2nc(n1)NS(=O)(=O)c1cccc(c1)C(=O)N([C@H]1CCN(C)C1)[C@H](CC(C)C)CO2` (stereo in doubt) [Compound 296], the “Ent. B Max Activity (%)” value is reported as “+++ (+++ is >60%)” and the EC50 (read-out: Ent. B EC50) is reported as 3000 to 30000 nM.

`Cc1cccc(C)c1-c1cc2nc(n1)NS(=O)(=O)c1cccc(c1)C(=O)N(C1CC3(C1)CC(C(C)(C)O)C3)[C@H](CCC(C)(C)C)CO2` (single isomer, unassigned) [Compound 8] was tested, and the “Ent. B Max Activity (%)” value (Table 10) was “+++ (+++ is >60%)” and the EC50 [1] was under 1000 nM.

For `Cc1cccc(C)c1-c1cc2nc(n1)NS(=O)(=O)c1cccc(c1)C(=O)N(C1CCN(C(=O)OC(C)C)C1)[C@H](CC(C)C)CO2` (single isomer, unassigned) [Compound 38], the “Ent. B Max Activity (%)” value was “++ (++ is 30-60%)” and the EC50 (read-out: Ent. B EC50) was under 1000 nM.

`Cc1cccc(C)c1-c1cc2nc(n1)NS(=O)(=O)c1cccc(c1)C(=O)N(C1CC3(CCN(C(=O)COC(C)C)CC3)C1)[C@H](CC(C)C)CO2` [Compound 458] was tested, and the “Ent. B Max Activity (%)” value (Table 9) was “+++ (+++ is >60%)” and the EC50 (Table 9, read-out: Ent. B EC50) was under 1000 nM.

With `COC(=O)N1CCC2(CC1)CC(N1C(=O)c3cccc(n3)S(=O)(=O)Nc3nc(cc(-c4c(C)cccc4C)n3)OC[C@H]1CC(C)C)C2` [Compound 391] the “Ent. B Max Activity (%)” value was “+++ (+++ is >60%)” and the EC50 (read-out: Ent. B EC50) was under 1000 nM.

For `Cc1cccc(C)c1-c1cc2nc(n1)NS(=O)(=O)c1cccc(c1)C(=O)N([C@H]1C[C@]3(C[C@H](NC(=O)OC(C)C)C3)C1)[C@H](CC1(C(F)(F)F)CC1)CO2` (stereo partly drawn) [Compound 79, Isopropyl ((2R,4r,6R)-6-((R)-1^6-(2,6-dimethylphenyl)-3,3-dioxido-5-oxo-7-((1-(trifluoromethyl)cyclopropyl)methyl)-9-oxa-3-thia-2,6-diaza-1(2,4)-pyrimidina-4(1,3)-benzenacyclononaphane-6-yl)spiro[3.3]heptan-2-yl)carbamate], the “Ent. B Max Activity (%)” value was “+++ (+++ is >60%)” and the EC50 (read-out: Ent. B EC50) was under 1000 nM.

With `Cc1cccc(C)c1-c1cc2nc(n1)NS(=O)(=O)c1cccc(c1)C(=O)N(C1CC(NC(=O)OC(C)(C)C)C1)[C@H](CC(C)(C)C(F)(F)F)CO2` (single isomer, unassigned) [Compound 194] the “Ent. B Max Activity (%)” value (Table 9) was “+++ (+++ is >60%)” and the EC50 (Table 9, read-out: Ent. B EC50) was under 1000 nM.

With `Cc1cccc(C)c1-c1cc2nc(n1)NS(=O)(=O)c1cccc(c1)C(=O)N([C@H]1C[C@@](C)(OC(F)(F)F)C1)[C@H](CC(C)(C)C)CO2` (single isomer, unassigned) [Compound 156] the “Ent. B Max Activity (%)” value (Table 10) was “++ (++ is 30-60%)” and the EC50 [1] was under 1000 nM.

For `CN[C@H]1C[C@@]2(C1)C[C@H](N1C(=O)c3cccc(c3)S(=O)(=O)Nc3nc(cc(-c4c(C)cccc4C)n3)OC[C@H]1CC1(C(F)(F)F)CC1)C2` (stereo partly drawn) [Compound 267], the “Ent. B Max Activity (%)” value (Table 9) was “+++ (+++ is >60%)” and the EC50 (Table 9, read-out: Ent. B EC50) was under 1000 nM.

In the case of `CCC(=O)N1CCC2(CC1)CC(N1C(=O)c3cccc(c3)S(=O)(=O)Nc3nc(cc(-c4c(C)cccc4C)n3)OC[C@H]1CC(C)(C)C(F)(F)F)C2` [Compound 417], the “Ent. B Max Activity (%)” value (Table 10) is reported as “+++ (+++ is >60%)” and the EC50 [1] is reported as under 1000 nM.

`Cc1cccc(C)c1-c1cc2nc(n1)NS(=O)(=O)c1cccc(c1)C(=O)N(C1CC3(COC(=O)N3)C1)[C@H](CC(C)(C)C)CO2` (single isomer, unassigned) [Compound 176] was tested, and the “Ent. B Max Activity (%)” value (Table 10) was “++ (++ is 30-60%)” and the EC50 [1] was under 1000 nM.

In the case of `Cc1cccc(C)c1-c1cc2nc(n1)NS(=O)(=O)c1cccc(c1)C(=O)N(C1CC3(C1)CC(O)(CC(C)C)C3)[C@H](CC(C)(C)C)CO2` (stereo in doubt) [Compound 404], the “Ent. B Max Activity (%)” value (Table 10) is reported as “+++ (+++ is >60%)” and the EC50 [1] is reported as under 1000 nM.

For `COC(=O)NC1CC(N2C(=O)c3cccc(c3)S(=O)(=O)Nc3nc(cc(-c4c(C)cccc4C)n3)OC[C@H]2CC(C)(C)C(F)(F)F)C1` (stereo partly drawn) [Compound 419], the “Ent. B Max Activity (%)” value (Table 10) was “+++ (+++ is >60%)” and the EC50 [1] was under 1000 nM.

In the case of `Cc1cccc(C)c1-c1cc2nc(n1)NS(=O)(=O)c1cccc(c1)C(=O)N(C1CC3(CC(N(C)C)C3)C1)[C@H](CC(C)(C)C)CO2` (stereo partly drawn) [Compound 461], the “Ent. B Max Activity (%)” value (Table 9) is reported as “+++ (+++ is >60%)” and the EC50 (Table 9, read-out: Ent. B EC50) is reported as under 1000 nM.

In the case of `Cc1cccc(C)c1-c1cc2nc(n1)NS(=O)(=O)c1cccc(c1)C(=O)N(C1CS(=O)(=O)C1)[C@H](CC(C)C)CO2` [Compound 41, (11R)-6-(2,6-Dimethylphenyl)-12-(1,1-dioxothietan-3-yl)-11-isobutyl-2,2-dioxo-9-oxa-2λ^6-thia-3,5,12,19-tetrazatricyclo[12.3.1.14,8]nonadeca-1(18),4(19),5,7,14,16-hexaen-13-one], the “Ent. B Max Activity (%)” value (Table 10) is reported as “+++ (+++ is >60%)” and the EC50 [1] is reported as under 1000 nM.

For `Cc1cccc(C)c1-c1cc2nc(n1)NS(=O)(=O)c1cccc(c1)C(=O)N([C@H]1C[C@@H](NC(=O)OC(C)(C)C)C1)[C@H](CC1(C(F)(F)F)CC1)CO2` (single isomer, unassigned) [Compound 55], the “Ent. B Max Activity (%)” value (Table 9) was “+++ (+++ is >60%)” and the EC50 (Table 9, read-out: Ent. B EC50) was under 1000 nM.

With `Cc1cccc(C)c1-c1cc2nc(n1)NS(=O)(=O)c1cccc(c1)C(=O)N([C@H]1C[C@@H](NC(=O)OC(C)(C)C)C1)[C@H](CC1(C(F)(F)F)CC1)CO2` (single isomer, unassigned) [Compound 54] the “Ent. B Max Activity (%)” value (Table 9) was “+++ (+++ is >60%)” and the EC50 (Table 9, read-out: Ent. B EC50) was under 1000 nM.

In the case of `[H][C@]1(N2C(=O)c3cccc(c3)S(=O)(=O)Nc3nc(cc(-c4c(C)cccc4C)n3)OC[C@H]2CC(C)(C)C)C[C@@]2(C[C@H](NC(=O)OC3CCC3)C2)C1` (stereo in doubt) [Compound 355], the “Ent. B Max Activity (%)” value (Table 10) is reported as “++ (++ is 30-60%)” and the EC50 [1] is reported as under 1000 nM.

`Cc1cccc(C)c1-c1cc2nc(n1)NS(=O)(=O)c1cccc(c1)C(=O)N(C1CC3(CCN(CCOC(C)C)CC3)C1)[C@H](CC(C)(C)C)CO2` [Compound 215] was tested, and the “Ent. B Max Activity (%)” value was “+++ (+++ is >60%)” and the EC50 (read-out: Ent. B EC50) was under 1000 nM.

With `Cc1cccc(C)c1-c1cc2nc(n1)NS(=O)(=O)c1cccc(c1)C(=O)N(C1CN(C(=O)OC(C)C)C(C)(C)C1)[C@H](CC(C)C)CO2` (stereo partly drawn) [Compound 110, Propan-2-yl 4-[(11R)-6-(2,6-dimethylphenyl)-11-(2-methylpropyl)-2,2,13-trioxo-9-oxa-2λ^6-thia-3,5,12,19-tetraazatricyclo[12.3.1.14,8]nonadeca-1(17),4(19),5,7,14(18),15-hexaen-12-yl]-2,2-dimethylpyrrolidine-1-carboxylate] the “Ent. B Max Activity (%)” value (Table 9) was “+++ (+++ is >60%)” and the EC50 (Table 9, read-out: Ent. B EC50) was under 1000 nM.

In the case of `Cc1cccc(C)c1-c1cc2nc(n1)NS(=O)(=O)c1cccc(c1)C(=O)N(C1CC(N)C1)[C@H](CC(C)(C)C)CO2` (single isomer, unassigned) [Compound 165], the “Ent. B Max Activity (%)” value (Table 10) is reported as “++ (++ is 30-60%)” and the EC50 [1] is reported as under 1000 nM.

With `Cc1cccc(C)c1-c1cc2nc(n1)NS(=O)(=O)c1cccc(c1)C(=O)N(c1cn(C)nc1C)[C@H](CC(C)(C)C)CO2` [Compound 227] the “Ent. B Max Activity (%)” value (Table 10) was “+++ (+++ is >60%)” and the EC50 [1] was under 1000 nM.

In the case of `Cc1cccc(C)c1-c1cc2nc(n1)NS(=O)(=O)c1cccc(c1)C(=O)N(C1CC3(CCN(C(=O)OC(C)C)CC3)C1)[C@H](CC(C)(C)C(F)(F)F)CO2` [Compound 421], the “Ent. B Max Activity (%)” value (Table 9) is reported as “+++ (+++ is >60%)” and the EC50 (Table 9, read-out: Ent. B EC50) is reported as under 1000 nM.

For `Cc1cccc(C)c1-c1cc2nc(n1)NS(=O)(=O)c1cccc(c1)C(=O)N(C1CC(OC(F)(F)F)C1)[C@H](CC(C)C)CO2` (stereo in doubt) [Compound 214], the “Ent. B Max Activity (%)” value (Table 9) was “+++ (+++ is >60%)” and the EC50 (Table 9, read-out: Ent. B EC50) was under 1000 nM.

`Cc1cccc(C)c1-c1cc2nc(n1)NS(=O)(=O)c1cccc(c1)C(=O)N(C1CC(NCCC(C)C)C1)[C@H](CC(C)C)CO2` (stereo partly drawn) [Compound 377] was tested, and the “Ent. B Max Activity (%)” value (Table 9) was “+++ (+++ is >60%)” and the EC50 (Table 9, read-out: Ent. B EC50) was under 1000 nM.

With `COCCN(C)C1CC(N2C(=O)c3cccc(c3)S(=O)(=O)Nc3nc(cc(-c4c(C)cccc4C)n3)OC[C@H]2CC(C)C)C1` (stereo partly drawn) [Compound 382] the “Ent. B Max Activity (%)” value (Table 9) was “+++ (+++ is >60%)” and the EC50 (Table 9, read-out: Ent. B EC50) was under 1000 nM.

For `COC(=O)NC1CC2(C1)CC(N1C(=O)c3cccc(c3)S(=O)(=O)Nc3nc(cc(-c4c(C)cccc4C)n3)O[C@@H](C)[C@H]1C)C2` (stereo partly drawn) [Compound 443], the “Ent. B Max Activity (%)” value (Table 10) was “++ (++ is 30-60%)” and the EC50 [1] was under 1000 nM.

For `Cc1cccc(C)c1-c1cc2nc(n1)NS(=O)(=O)c1cccc(c1)C(=O)N(C1CC3(CCN(CC(F)F)CC3)C1)[C@H](CC(C)C)CO2` [Compound 322], the “Ent. B Max Activity (%)” value was “+++ (+++ is >60%)” and the EC50 (read-out: Ent. B EC50) was under 1000 nM.

With `COC(=O)NC[C@H]1C[C@@H](N2C(=O)c3cccc(c3)S(=O)(=O)Nc3nc(cc(-c4c(C)cccc4C)n3)OC[C@H]2CC(C)C)C1` (stereo in doubt) [Compound 264] the “Ent. B Max Activity (%)” value (Table 9) was “+++ (+++ is >60%)” and the EC50 (Table 9, read-out: Ent. B EC50) was under 1000 nM.

`Cc1cccc(C)c1-c1cc2nc(n1)NS(=O)(=O)c1cccc(c1)C(=O)N([C@H]1C[C@@H](OC(F)(F)C(F)(F)F)C1)[C@H](CC(C)C)CO2` [Compound 210] was tested, and the “Ent. B Max Activity (%)” value (Table 10) was “++ (++ is 30-60%)” and the EC50 [1] was under 1000 nM.

`CC(=O)N1CC2(CC(N3C(=O)c4cccc(c4)S(=O)(=O)Nc4nc(cc(-c5c(C)cccc5C)n4)OC[C@H]3CC3(C(F)(F)F)CC3)C2)C1` [Compound 452] was tested, and the “Ent. B Max Activity (%)” value (Table 9) was “+++ (+++ is >60%)” and the EC50 (Table 9, read-out: Ent. B EC50) was under 1000 nM.
